Data on 5 compounds can be found in US9249125B2, “Pyrazole derivatives as p38 MAP inhibitors” (RESPIVERT LIMITED, priority 2012, dated 2016).

The test system of series [1] is LPS-induced TNFα release in d-U937 cells. The experiment in a line: LPS-induced TNFα release in d-U937 cells. It is filed as cell-based. Particulars: Homo sapiens, dU937, relative to 10 μg/mL BIRB796, read-out: LPS Induced Release of Cytokine in d-937 Cells TNFα REC50. The method, then: (§1) U937 cells, a human monocytic cell line, are differentiated into macrophage-type cells by incubation with PMA (100 ng/mL) for 48 to 72 hr. Cells are pre-incubated with final concentrations of test compound for 2 hr and are then stimulated with LPS (0.1 μg/mL) (from E. coli: O111:B4, Sigma) for 4 hr. The supernatant is collected for determination of TNFα and IL-8 concentrations by sandwich ELISA (Duo-set, R&D systems). […] The relative 50% effective concentration (REC50) is determined from the resultant concentration-response curve. The inhibition of IL-8 production is calculated at each concentration of test compound by comparison with vehicle control. […] (b) LPS-Induced TNFα/IL-8 Release in PBMC Cells

The target of series [2] is GSK3α (Homo sapiens (Human), UniProt P49840). The experiment in a line: GSK 3α enzyme inhibition (FRET, Z-LYTE). It is filed as biochemical. The method, then:
(§2) The enzyme inhibitory activities of compounds disclosed herein are determined by FRET using synthetic peptides labelled with both donor and acceptor fluorophores (Z-LYTE, Invitrogen Ltd., Paisley, UK).
The inhibitory activities of compounds of the invention against the GSK 3α enzyme isoform (Invitrogen), are evaluated by determining the level of activation/phosphorylation of the target peptide. The GSK3-α protein (500 ng/mL, 2.5 μL) is mixed with the test compound (2.5 μL at either 4 μg/mL, 0.4 μg/mL, 0.04 μg/mL, or 0.004 μg/mL) for 2 hr at RT. The FRET peptide (8 μM, 2.5 μL), which is a phosphorylation target for GSK3α, and ATP (40 μM, 2.5 μL) are then added to the enzyme/compound mixture and the resulting mixture incubated for 1 hr. Development reagent (protease, 5 μL) is added for 1 hr prior to detection in a fluorescence microplate reader (Varioskan® Flash, ThermoFisher Scientific).
(§3) In all cases, the site-specific protease cleaves non-phosphorylated peptide only and eliminates the FRET signal. Phosphorylation levels of each reaction are calculated using the ratio of coumarin emission (donor) over fluorescein emission (acceptor), for which low ratios indicate high phosphorylation and high ratios indicate low phosphorylation levels.

Series [3] concerns LPS-induced IL-8 release in d-U937 cells. The experiment in a line: LPS-induced IL-8 release in d-U937 cells. The class given is cell-based. Particulars: Homo sapiens, dU937, read-out: LPS Induced Release of Cytokine in d-937 Cells IL-8 IC50. The procedure:
as §1

In series [4] the target is cSrc (Homo sapiens (Human), UniProt P12931). The experiment in a line: c-Src enzyme inhibition (FRET, Z-LYTE). The class given is biochemical. The procedure:
as §2
(§4) The relevant enzyme (3000 ng/mL or 2000 ng/mL respectively, 2.5 μL) is incubated with the test compound (either 4 μg/mL, 0.4 μg/mL, 0.04 μg/mL, or 0.004 μg/mL, 2.5 μL each) for 2 hr at RT. The FRET peptides (8 μM, 2.5 μL), and appropriate ATP solutions (2.5 μL, 800 μM for c-Src, and 60 μM ATP for Syk) are then added to the enzymes/compound mixtures and incubated for 1 hr. Development reagent (protease, 5 μL) is added for 1 hr prior to detection in a fluorescence microplate reader (Varioskan® Flash, ThermoFisher Scientific).
as §3

Series [5] deals with d-U937 cells. The experiment in a line: Cell viability: MTT assay. It is filed as cell-based, human. Particulars: 1 μg/mL. The method, then: Differentiated U937 cells are pre-incubated with each test compound (final concentration 1 μg/mL or 10 μg/mL in 200 μL media indicated below) under two protocols: the first for 4 hr in 5% FCS RPMI1640 media and the second in 10% FCS RPMI1640 media for 24 h. The supernatant is replaced with new media (200 μL) and MTT stock solution (10 μL, 5 mg/mL) is added to each well. After incubation for 1 hr the media are removed, DMSO (200 μL) is added to each well and the plates are shaken lightly for 1 hr prior to reading the absorbance at 550 nm. The percentage loss of cell viability is calculated for each well relative to vehicle (0.5% DMSO) treatment. Consequently an apparent increase in cell viability for drug treatment relative to vehicle is tabulated as a negative percentage.

Series [6] concerns the target Syk (Homo sapiens (Human), UniProt P43405). The experiment in a line: Syk enzyme inhibition (FRET, Z-LYTE). It is filed as biochemical. The procedure: as §2, §4, §3
Series [7] concerns the target p38 MAPKα (Homo sapiens (Human), UniProt Q16539). The experiment in a line: p38 MAPKα enzyme inhibition (FRET, Z-LYTE). The class given is biochemical. The procedure: as §2
The inhibitory activities of test compounds against the p38 MAPKα isoform (MAPK14: Invitrogen), are evaluated indirectly by determining the level of activation/phosphorylation of the down-stream molecule, MAPKAP-K2. The p38 MAPKα protein (80 ng/mL, 2.5 μL) is mixed with the test compound (2.5 μL of either 4 μg/mL, 0.4 μg/mL, 0.04 μg/mL or 0.004 μg/mL) for 2 hr at RT. […] The mixture is incubated for 1 hr at RT. Development reagent (protease, 5 μL) is added for 1 hr prior to detection in a fluorescence microplate reader (Varioskan® Flash, ThermoFisher Scientific).
as §3

Series [8] deals with Poly I:C-induced ICAM-1 expression in BEAS2B cells. The experiment in a line: Poly I:C-induced ICAM-1 expression in BEAS2B cells. It is filed as cell-based. Particulars: Homo sapiens, BEAS-2B, read-out: Poly IC induced ICAM1 in BEAS2B IC50. The method, then:
Poly I:C is used in these studies as a simple, RNA virus mimic. Poly I:C-Oligofectamine mixture (1 μg/mL Poly I:C, ±2% Oligofectamine, 25 uL) (Invivogen Ltd., San Diego, Calif., and Invitrogen, Carlsbad, Calif., respectively) is transfected into BEAS2B cells (human bronchial epithelial cells, ATCC). Cells are pre-incubated with final concentrations of test compounds for 2 hr and the level of ICAM1 expression on the cell surface is determined by cell-based ELISA. At a time point 18 hr after poly I:C transfection, cells are fixed with 4% formaldehyde in PBS (100 μL) and then endogenous peroxidase is quenched by the addition of washing buffer (100 μL, 0.05% Tween in PBS: PBS-Tween) containing 0.1% sodium azide and 1% hydrogen peroxide. Cells are washed with wash-buffer (3×200 μL). and after blocking the wells with 5% milk in PBS-Tween (100 μL) for 1 hr, the cells are incubated with anti-human ICAM-1 antibody (50 μL) (Cell Signaling Technology, Danvers, Mass.) in 1% BSA PBS overnight at 4° C.
The cells are washed with PBS-Tween (3×200 μL) and incubated with the secondary antibody (100 μL) (HRP-conjugated anti-rabbit IgG, Dako Ltd., Glostrup, Denmark). The cells are then incubated with of substrate (50 μL) for 2-20 min, followed by the addition of stop solution (50 μL, 1N H2SO4). The ICAM-1 signal is detected by reading and reading the absorbance at 450 nm against a reference wavelength of 655 nm using a spectrophotometer. The cells are then washed with PBS-Tween (3×200 μL) and total cell numbers in each well are determined by reading absorbance at 595 nm after Crystal Violet staining (50 μL of a 2% solution in PBS) and elution by 1% SDS solution (100 μL) in distilled water. The measured OD 450-655 readings are corrected for cell number by dividing with the OD595 reading in each well.

Sequence of GSK3α (P49840 whole entry): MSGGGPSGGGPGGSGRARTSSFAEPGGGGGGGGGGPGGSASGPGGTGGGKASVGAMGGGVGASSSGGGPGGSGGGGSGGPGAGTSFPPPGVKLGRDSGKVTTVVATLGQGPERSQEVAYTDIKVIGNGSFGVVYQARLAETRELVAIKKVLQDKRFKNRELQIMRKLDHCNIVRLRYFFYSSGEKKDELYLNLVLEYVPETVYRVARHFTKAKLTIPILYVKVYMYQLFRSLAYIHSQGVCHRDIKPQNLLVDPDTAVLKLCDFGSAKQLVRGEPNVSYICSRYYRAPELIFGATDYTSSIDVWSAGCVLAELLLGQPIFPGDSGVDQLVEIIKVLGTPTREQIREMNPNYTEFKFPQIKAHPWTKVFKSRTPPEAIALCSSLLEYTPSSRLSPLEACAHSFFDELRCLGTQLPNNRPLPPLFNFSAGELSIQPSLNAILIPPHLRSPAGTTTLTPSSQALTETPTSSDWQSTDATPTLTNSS
Sequence of cSrc (P12931 whole entry, looked up): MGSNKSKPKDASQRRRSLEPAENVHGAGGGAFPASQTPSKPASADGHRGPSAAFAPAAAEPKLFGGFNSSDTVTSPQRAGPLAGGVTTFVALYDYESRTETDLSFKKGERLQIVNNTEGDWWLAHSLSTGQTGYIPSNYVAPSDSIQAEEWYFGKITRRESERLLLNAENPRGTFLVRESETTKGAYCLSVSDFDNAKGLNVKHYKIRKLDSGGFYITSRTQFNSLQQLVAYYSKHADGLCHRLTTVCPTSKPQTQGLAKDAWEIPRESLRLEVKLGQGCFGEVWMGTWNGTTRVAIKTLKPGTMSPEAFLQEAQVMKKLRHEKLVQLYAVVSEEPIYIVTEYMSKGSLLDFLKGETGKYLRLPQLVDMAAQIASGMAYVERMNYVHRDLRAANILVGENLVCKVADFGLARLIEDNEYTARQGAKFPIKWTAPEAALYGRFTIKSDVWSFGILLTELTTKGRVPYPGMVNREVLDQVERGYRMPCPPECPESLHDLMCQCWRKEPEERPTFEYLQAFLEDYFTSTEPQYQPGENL
Sequence of p38 MAPKα (Q16539 whole entry, canonical isoform): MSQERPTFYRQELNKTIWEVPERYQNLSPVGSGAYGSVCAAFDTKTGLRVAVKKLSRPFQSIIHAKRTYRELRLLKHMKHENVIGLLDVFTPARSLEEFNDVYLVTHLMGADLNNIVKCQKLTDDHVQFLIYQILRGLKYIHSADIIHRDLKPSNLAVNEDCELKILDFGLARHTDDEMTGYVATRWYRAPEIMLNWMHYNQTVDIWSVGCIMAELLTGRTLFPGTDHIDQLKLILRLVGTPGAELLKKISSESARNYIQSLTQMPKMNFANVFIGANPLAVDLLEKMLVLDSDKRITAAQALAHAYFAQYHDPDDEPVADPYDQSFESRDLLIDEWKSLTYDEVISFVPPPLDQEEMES

`CC(C)(C)c1cc(NC(=O)Nc2ccc(Oc3ccnc(Nc4ccc5oc(=O)[nH]c5c4)n3)c3ccccc23)n(-c2ccc(OCCN3CCOCC3)cc2)n1` [Example 76, 1-(3-(tert-butyl)-1-(4-(2-morpholinoethoxy)phenyl)-1H-pyrazol-5-yl)-3-(4-((2-((2-oxo-2,3-dihydrobenzo[d]oxazol-5-yl)amino)pyrimidin-4-yl)oxy)naphthalen-1-yl)urea]: the EC50 in series [1] was found to be 12.5 nM. Further, the IC50 is 777 nM in series [2]; 0.3 nM in series [3]; 15 nM in series [4]; 34 nM in series [6]; 48 nM in series [7]; 2.2 nM in series [8]. Further, the “MTT Assay Cell viability at time point in d-U937 cells 4 h” value in series [5] was “−ve (−ve and +ve indicate that the value is below and above respectively, the no significant effect threshold, defined as 30% inhibition at 1 μg/mL at the time point indicated.)”. Further, the “MTT Assay Cell viability at time point in d-U937 cells 24 h” value in series [5] is “−ve (−ve and +ve indicate that the value is below and above respectively, the no significant effect threshold, defined as 30% inhibition at 1 μg/mL at the time point indicated.)”.
Take `Cc1ccc(-n2nc(C(C)(C)C)cc2NC(=O)Nc2ccc(Oc3ccnc(Nc4ccc5c(c4)CC(=O)N5)n3)c3ccccc23)cc1` [Example 19, 1-(3-(tert-butyl)-1-(p-tolyl)-1H-pyrazol-5-yl)-3-(4-((2-((2-oxoindolin-5-yl)amino)pyrimidin-4-yl)oxy)naphthalen-1-yl)urea]: in series [1], the EC50 was 1.8 nM. The IC50 in series [2] was 1010 nM; in series [3] it was 1.9 nM; in series [4], 7 nM; in series [6], 32 nM; in series [7] it was 12 nM; in series [8], 2.4 nM. Also, in series [5], the “MTT Assay Cell viability at time point in d-U937 cells 4 h” value is “−ve (−ve and +ve indicate that the value is below and above respectively, the no significant effect threshold, defined as 30% inhibition at 1 μg/mL at the time point indicated.)”. In addition, the “MTT Assay Cell viability at time point in d-U937 cells 24 h” value in series [5] was “−ve (−ve and +ve indicate that the value is below and above respectively, the no significant effect threshold, defined as 30% inhibition at 1 μg/mL at the time point indicated.)”.
As to `Cc1cc2cc(Nc3nccc(Oc4ccc(NC(=O)Nc5cc(C(C)(C)C)nn5-c5ccc(OCCN6CCOCC6)cc5)c5ccccc45)n3)ccc2[nH]1` [Example 66, 1-(3-(tert-butyl)-1-(4-(2-morpholinoethoxy)phenyl)-1H-pyrazol-5-yl)-3-(4-((2-((2-methyl-1H-indol-5-yl)amino)pyrimidin-4-yl)oxy)naphthalen-1-yl)urea], in series [1], the EC50 was 6.4 nM. For the same compound, the IC50 amounted to 2850 nM in series [2]; 16 nM in series [3]; 15 nM in series [4]; 19 nM in series [6]; 335 nM in series [7]; 6.9 nM in series [8]. For the same compound, the “MTT Assay Cell viability at time point in d-U937 cells 4 h” value in series [5] is “−ve (−ve and +ve indicate that the value is below and above respectively, the no significant effect threshold, defined as 30% inhibition at 1 μg/mL at the time point indicated.)”. Further, in series [5], the “MTT Assay Cell viability at time point in d-U937 cells 24 h” value is “−ve (−ve and +ve indicate that the value is below and above respectively, the no significant effect threshold, defined as 30% inhibition at 1 μg/mL at the time point indicated.)”.
As to `COc1ccc(-n2nc(C(C)C)cc2NC(=O)Nc2ccc(Oc3cc(Nc4ccc5[nH]ncc5c4)ncn3)c3ccccc23)cc1` [Example 39, 1-(4-((6-((1H-indazol-5-yl)amino)pyrimidin-4-yl)oxy)naphthalen-1-yl)-3-(3-isopropyl-1-(4-methoxyphenyl)-1H-pyrazol-5-yl)urea], the EC50 in series [1] was determined as 5.8 nM. In addition, the IC50 in series [2] is over 16000 nM; in series [3], 15.3 nM; in series [4], 11 nM; in series [6] it was 39 nM; in series [7], 10 nM; in series [8], 160 nM. Besides, the “MTT Assay Cell viability at time point in d-U937 cells 4 h” value in series [5] is “−ve (−ve and +ve indicate that the value is below and above respectively, the no significant effect threshold, defined as 30% inhibition at 1 μg/mL at the time point indicated.)”. Moreover, in series [5], the “MTT Assay Cell viability at time point in d-U937 cells 24 h” value was “−ve (−ve and +ve indicate that the value is below and above respectively, the no significant effect threshold, defined as 30% inhibition at 1 μg/mL at the time point indicated.)”.
Take `Cc1n[nH]c2ccc(Nc3nccc(Oc4ccc(NC(=O)Nc5cc(C(C)(C)C)nn5-c5ccc(OCCN6CCOCC6)cc5)c5ccccc45)n3)cc12` [Example 72]: the EC50 in series [1] turned out to be 1.6 nM. Also, the IC50 came out at 2290 nM in series [2]; 1.7 nM in series [3]; 2 nM in series [4]; 3 nM in series [6]; 13 nM in series [7]; 165 nM in series [8]. In addition, in series [5], the “MTT Assay Cell viability at time point in d-U937 cells 4 h” value is “−ve (−ve and +ve indicate that the value is below and above respectively, the no significant effect threshold, defined as 30% inhibition at 1 μg/mL at the time point indicated.)”. Moreover, in series [5], the “MTT Assay Cell viability at time point in d-U937 cells 24 h” value is “−ve (−ve and +ve indicate that the value is below and above respectively, the no significant effect threshold, defined as 30% inhibition at 1 μg/mL at the time point indicated.)”.
